# Reference: patent US12158464B2, “Methods for modeling disease tissue using three-dimensional tissue systems” (priority 2013, dated 2024)
# Entries after “also recorded” stand apart in the source; their conditions may differ.
# Legend:
# [1] = test system: hESC-derived cardiomyocyte tissue strands; experiment: α-actinin immunostaining and confocal microscopy of NO-treated tissue strands; type: cell-based, human; conditions: NO treatment by perfusion, vs control tissue strands
# Method: Tissue strands were fixed with 4% parafornaldehyde, permeablized by 0.25% Triton X-100, and blocked by 10% bovine serum albumin (BSA). Immunostaining was performed using the following antibodies: mouse anti-cardiac Troponin T (cTnT) (Abcam; 1:100), mouse anti-α-actinin (Abcam; 1:200) and anti-rabbit-TRITC (Invitrogen; 1:200), anti-mouse-TRITC (Jackson Immuno Research; 1:200). Nuclei were counterstained with 4′,6-diamidino-2-phenylindole (DAPI) (Biotium; 1:100). Phalloidin-Alexa 660 (Introgen; 1:600) was used to stain F-actin fibers. For confocal microscopy, the stained cardiac tissue strands were visualized under an inverted confocal microscope (Olympus IX81) or an upright confocal microscope (Zeiss LSM 510).
# NO treatment of human cardiac tissue strands was carried out. On day 7, the NO treatment of human cardiac tissue strand was initiated by perfusing the 200 mM SNP solution and the peristaltic pump was stopped once the SNP solution was perfused through the tubing. The beating activities of the human cardiac tissue strands were recorded at 16.67 frames/second before treatment and 24 hr post-treatment by Olympus IX81 while the tissue strands were kept at 37° C. The beating activities of the human cardiac tissue strands were quantified by the image analysis method described by Sage et al^28. […]
# [2] = test system: hESC-derived cardiomyocyte tissue strands; experiment: NO treatment of perfusable human cardiac tissue strands, beating activity by image analysis; type: cell-based; conditions: 24 hr NO treatment by perfusion of 200 mM SNP
# Method: NO treatment of human cardiac tissue strands was carried out. On day 7, the NO treatment of human cardiac tissue strand was initiated by perfusing the 200 mM SNP solution and the peristaltic pump was stopped once the SNP solution was perfused through the tubing. The beating activities of the human cardiac tissue strands were recorded at 16.67 frames/second before treatment and 24 hr post-treatment by Olympus IX81 while the tissue strands were kept at 37° C. The beating activities of the human cardiac tissue strands were quantified by the image analysis method described by Sage et al^28. In brief, the movements of one spot at the same location on the human cardiac tissue strand before and after the NO treatment were characterized.
# [3] = test system: Hes2 hESC derived cardiomyocytes; type: cell-based, human; conditions: single cells dissociated at end of 7 days treatment, cardiac troponin T staining
# Method: (§1) After preculture for 7 days, biowires were randomly transferred to 6-well plates and cultured in StemPro-34 media in the absence or presence of Isoproterenol (100 nM), Angiotensin II (200 nM [17]) or Endothelin-1 (150 nM)(Sigma) for 7 days. This protocol was chosen to replicate the chronic treatment of mice as described. […] Isolated single cells were seeded on Matrigel-coated glass cover slips before cell area and calcium transient measurements were performed.
# hESC-CM biowires (Hes2) [4] = experiment: Chronic drug exposure: conduction velocity by optical mapping upon point stimulation; type: cell-based, human; conditions: point stimulation at the end of cultivation, vs non-treated controls
# Method: Optical Mapping. […] Imaging was performed at 200 frames/s. […] Data analysis was performed using BrainVision software (Scimedia).
# [5] = test system: hESC-derived CMs 3D tissues; type: cell-based, human
# Method: Alternatively, to measure the force generated by the 3D engineered cardiac tissues, a bioreactor consisting of a PDMS tissue chamber capable of housing 8 micotissues was employed. […] Briefly, each well of the PDMS chamber had two posts which served as anchoring points for each cardiac tissue during gel compaction. Furthermore, by tracking a post's deflection, the force of contraction a cardiac tissue generated was determined. Cardiac tissues underwent 7 days of pre-culture followed by 7 days of treatment with endothelin-1, angiotensin II or isoproterenol. After the treatment, the contractile force of each cardiac tissue was determined by video recording, one at a time, the top surface of a post for each cardiac tissue while being paced at 0.5 or 1 Hz using CellSens software (Olympus). Each video was then exported as a series of Tiff images and opened in ImageJ. […] Using the method of superposition for a cantilever beam-partial uniform deflection, a point force was calculated and then normalized to the tissues cross sectional area (assumed circular) to determine the cardiac force per area.
# [6] = test system: human cardiac tissue strands (hESC, Hes2 derived cardiomyocytes); experiment: Biorod drug testing: tissue beating pattern and contractile force by polymer wire deflection; type: cell-based
# Method: Cardiomyocytes were derived from human embryonic stem cell lines (hESC, Hes2). Embryoid bodies (EBs) were differentiated to the cardiovascular lineage and disassociated as previously described in Device 1 Methods. Before cell seeding, micro-well surface was rinsed with 5% (w/v) Pluronic Acid (Sigma P2443) and then air dried in the bio-safety cabinet. hESC derived cardiomyocytes were suspended at 200 million/ml (unless specified otherwise) in Collagen Type I based gel (3.0 mg/ml of rat tail collagen type I (BD Biosciences) neutralized by 1N NaOH and 10×M199 media as described by the manufacturer) with the supplements of […], 1% (v/v) HEPES, 10% (v/v) Matrigel (BD Biosciences), and […]. Suspended cardiomyocytes were then seeded into the cell culture channel (2.5 μl per well). After 30 min incubation at 37° C. to induce the gelation, appropriate media were added. After seeding, cells were kept in culture for 7 days to allow collagen matrix remodeling and assembly around the wires. Cardiac tissue strands were kept in culture for up to 21 days with media change every 2-3 days. Preferably, the tissue strands should be kept in culture for at least 2 weeks to allow for maturation; however there is no limitation on the maximum culture duration. Cardiac tissue strands were seeded to observe the stability and reproducibility of tissue in long term culture. After seeding, brightfield images (see FIG. 39A for an example) of the tissue strands were taken every day (n=3 per group) using optical microscope (Olympus CKX41) and the diameters of the tissue strands at four distinct locations were analyzed with imageJ (see FIG. 39B for an example). Tissue strand lengths were also analyzed with same method.
# Tissue contractile behavior tracing and measurement was carried out. POMac is auto-fluorescent at a wide range of wavelenths; therefore the wires were imaged with a fluorescence microscope under DAPI channel (e.g. 461 nm wavelength) to trace the bending movements of the wires. The POMac is auto-fluorescent at a wide range of wavelengths, including under FITC and Tritc channels. Images were taken at 25 frames per second (fps) (see FIG. 39C). Image sequences were analyzed with ImageJ software using tracking plugin. To calculate the forces originated from cardiac tissues, beam deflection formula with uniformly distributed load in the middle section was used here. […] The engineered cardiac tissues were paced at 2 Hz frequency. From this image sequence, contraction and relaxation time of beating can be estimated. […] Tissue stretching wires can be considered uniformly distributed Load, Wo (Load per force bearing length), which can be calculated with displacement of center point of wires in image sequence, and F can be calculated as well. […] Briefly, entire beam length was L. Section of wire with tissue wrapping around it was experiencing load. Here, the load was assumed to be evenly distributed throughout this section, and Wo was load per length. […] The distance between side of the tissue and a well wall is a, which was assumed equal for both sides. The deflection at center point was y.
# Drug testing was carried out.
# hESC-CM biowires (Hes2) [7] = experiment: Chronic drug exposure of biowires: quantitative RT-PCR of fetal gene program; type: cell-based, human; conditions: 7 days treatment: ISO 100 nM, Et-1 150 nM, AngII 200 nM, vs untreated control
# Method: as §1
# Quantitative RT-PCR. RT-PCR was performed as previously described. Total RNA was prepared with the High Pure RNA Isolation Kit (Roche) and treated with RNase-free DNase (Roche). RNA was reverse transcribed into cDNA using random hexamers and Oligo (dT) with SuperScript VILO (Invitrogen). RT-qPCR was performed on a LightCycler 480 (Roche) using LightCycler 480 SYBR Green I Master (Roche). Expression levels were normalized to the housekeeping genes TATA box binding protein (TBP) or Glyceraldehyde 3-phosphate dehydrogenase (GAPDH).
# [8] = test system: hESC-derived CMs 3D tissues; experiment: Chronic drug exposure: cell viability in 3D tissues by live/dead staining; type: cell-based, human; conditions: vs non-treated controls
# hESC-CM biowires (Hes2) [9] = experiment: Chronic drug exposure: ELISA of soluble BNP in conditioned media; type: cell-based, human
# Method: as §1, with “performed. ELISA. Quantification of soluble BNP from the conditioned media was performed using commercially available ELISA kits.” for “performed.”
# hESC-CM biowires (Hes2) [10] = type: cell-based, human
# Method: After preculture for 7 days, biowires were randomly transferred to 6-well plates and cultured in StemPro-34 media in the absence or presence of Isoproterenol (100 nM), Angiotensin II (200 nM [17]) or Endothelin-1 (150 nM)(Sigma) for 7 days. This protocol was chosen to replicate the chronic treatment of mice as described. […] Isolated single cells were seeded on Matrigel-coated glass cover slips before cell area and calcium transient measurements were performed. Immunostaining and Fluorescence Microscopy. Immunostaining was performed using the following antibodies: mouse anti-cTNT (1:100, Thermo Scientific; MS-295-P1), mouse anti-α-actinin (1:200, Abcam, ab9465), anti-mouse-Alexa Fluor 488 (1:400, Invitrogen, A21202), anti-rabbit-TRITC (1:400, Invitrogen, 81-6114). DAPI was used to counterstain nuclei. Phalloidin Alexa Fluor 660 (1:1000, Invitrogen, A22285) was used to detect actin fibers. The stained cells were visualized using a fluorescence microscope (Leica CTR6000) and images captured using the Leica Application Suite software. For confocal microscopy cells were visualized using a fluorescence confocal microscope (Zeiss LSM-510). Transmission Electron Microscopy (TEM). Tissue was fixed with 4% Paraformaldehyde, 1% Glutaraldehyde in 0.1 M PBS for at least 1 hr and washed 3 times with PBS pH 7.2. Post-fixation was done with 1% Osmium Tetraoxide in 0.1 M PBS, pH 7.2 for 1 hr and dehydrated using ethanol series from 25 to 100%. Tissue was infiltrated using Epon resin and polymerized in plastic dishes at 40° C. for 48 hr. Tissue was stained with Uranyl Acetate and Lead Citrate after sectioning. Imaging was performed at Hitachi H-7000 transmission electron microscope.
Structure (SMILES),α-actinin structure (cytoskeleton) of cardiomyocytes [1],spontaneous beating of human cardiac tissue strands ([2]; vs basal level),beating frequency after NO treatment normalized to the basal level ([2]; n=3),increase in cell size [3],conduction velocity (hESC-CM biowires (Hes2) [4]),force of contraction [5],tissue contractile forces normalized to forces before drug addition ([6]; 100 nM),tissue contractile forces normalized to forces before drug addition ([6]; 1 μM),tissue contractile forces normalized to forces before drug addition ([6]; 10 μM),response of human cardiac tissues to well-known drugs ([6]; summary statement),ANF and BNP gene expression (fetal gene program) (hESC-CM biowires (Hes2) [7]),ANF and BNP gene expression (fetal gene program) (hESC-CM biowires (Hes2) [7]; listed as Isoproterenol),cell viability (live/dead staining) [8],BNP in the conditioned media (hESC-CM biowires (Hes2) [9]; chronic treatment),"increase in the secretion of BNP (hESC-CM biowires (Hes2) [9]; day 2 post-treatment, media conditioned for 48 h)","increase of BNP in the media (hESC-CM biowires (Hes2) [9]; day 7, media conditioned for 24 h)",contractile apparatus (transmission electron microscopy) (hESC-CM biowires (Hes2) [10])
"[N]=O [NO, nitric oxide]",disrupted α-actinin structure; also recorded: overall punctate pattern,significantly slowed down the beating,74±3%,,,,,,,,,,,,,,
"CC(C)NCC(O)c1ccc(O)c(O)c1 (centres unmarked) [ISO, Isoproterenol]",,,,35%,the same,significantly reduced force of contraction,positive inotropic action,positive inotropic action,slight negative inotropic effect,responded appropriately,significantly induced,induction of brain natriuretic peptide (BNP) and atrial natriuretic factor (ANF) gene expression,no differences,BNP can also be found in the conditioned media,2.5 fold,70%,significant absence of distinct Z-disks and the lack of a defined sarcomere structure
